The values that follow are results of earlier work, collected in paper PMC3310340 (Bioconjugate Chemistry, 2012).

In this series the test system is rats. The note with it: administered orally to rats; ref material safety data sheet for KHP.

Structures are written as SMILES.

`O=C(O)c1ccccc1C(=O)O` [KHP, potassium biphthalate]: the 50% lethal dose (LD50) is on record as over 3200 mg/kg.
